Assay results: patent US20230033285A1, “Protease Inhibitors for Treatment of Coronavirus Infections” (The Scripps Research Institute, priority 2021, published 2023)

system: SARS-CoV-2; assay: microbe, parasite or virus in culture; format: cell-based; details: Severe acute respiratory syndrome coronavirus 2; HeLa-ACE2 cells infected with SARS-CoV-2, 24 h, immunofluorescence of infected cells; read-out: EC50, μM (Hela)

`CC(C)C[C@H](NC(=O)C(=O)NC1(C)CC1)C(=O)N[C@@H](C[C@@H]1CCCNC1=O)C(=O)CO` [Compound 29, N^1-((S)-1-(((S)-4-hydroxy-3-oxo-1-((S)-2-oxopiperidin-3-yl)butan-2-yl)amino)-4-methyl-1-oxopentan-2-yl)-N^2-(1-methylcyclopropyl)oxalamide] and `CC(C)C[C@H](NC(=O)C(=O)Nc1ccccc1F)C(=O)N[C@@H](C[C@@H]1CCCCNC1=O)C(=O)CO` [Compound 34, N^1-(2-fluorophenyl)-N^2-((S)-1-(((S)-4-hydroxy-3-oxo-1-((S)-2-oxoazepan-3-yl)butan-2-yl)amino)-4-methyl-1-oxopentan-2-yl)oxalamide] cannot be ordered by EC50: > 1 µM for the first, > 1 µM for the second.

`CC(C)C[C@H](NC(=O)C(=O)Nc1ccccc1)C(=O)N[C@@H](C[C@@H]1CCNC1=O)C(=O)CO` [Compound 2, N^1-((S)-1-(((S)-4-hydroxy-3-oxo-1-((S)-2-oxopyrrolidin-3-yl)butan-2-yl)amino)-4-methyl-1-oxopentan-2-yl)-N^2-phenyloxalamide] and `COc1ccccc1NC(=O)C(=O)N[C@@H](CC(C)C)C(=O)N[C@@H](C[C@@H]1CCNC1=O)C(=O)CO` [Compound 7] cannot be ordered by EC50: > 1 µM for the first, > 1 µM for the second.

First: CC(C)(C)NC(=O)C(=O)N1C[C@@H]2CCC[C@@H]2[C@H]1C(=O)N[C@@H](C[C@@H]1CCCNC1=O)C(=O)CO [Compound 32, (1S,3aR,6aS)-2-(2-(tert-butylamino)-2-oxoacetyl)-N-((S)-4-hydroxy-3-oxo-1-((S)-2-oxopiperidin-3-yl)butan-2-yl)octahydrocyclopenta[c]pyrrole-1-carboxamide]
Second: O=C(Nc1ccccc1F)C(=O)N1C[C@@H]2CCC[C@@H]2[C@H]1C(=O)N[C@@H](C[C@@H]1CCCNC1=O)C(=O)CO [Compound 33, (1S,3aR,6aS)-2-(2-((2-fluorophenyl)amino)-2-oxoacetyl)-N-((S)-4-hydroxy-3-oxo-1-((S)-2-oxopiperidin-3-yl)butan-2-yl)octahydrocyclopenta[c]pyrrole-1-carboxamide]
The EC50 of the first is higher: 0.5 to 1 µM for the first, 0.05 to 0.2 µM for the second. The second is the more potent here.

First: CCCCCCCCCCCCCCC(=O)OCC(=O)[C@H](C[C@@H]1CCNC1=O)NC(=O)[C@H](CC(C)C)NC(=O)C(=O)Nc1ccccc1F [Compound 4, (S)-3-((S)-2-(2-((2-fluorophenyl)amino)-2-oxoacetamido)-4-methylpentanamido)-2-oxo-4-((S)-2-oxopyrrolidin-3-yl)butyl pentadecanoate]
Second: CC(=O)OCC(=O)[C@H](C[C@@H]1CCNC1=O)NC(=O)[C@H](CC(C)C)NC(=O)C(=O)Nc1ccccc1F [Compound 106, (S)-3-((S)-2-(2-((2-fluorophenyl)amino)-2-oxoacetamido)-4-methylpentanamido)-2-oxo-4-((S)-2-oxopyrrolidin-3-yl)butyl acetate]
The EC50 of the first is higher: 0.2 to 0.5 µM for the first, 0.05 to 0.2 µM for the second. The second is the more potent here.

First: CC(C)(C)NC(=O)C(=O)N1C[C@H]2[C@@H]([C@H]1C(=O)N[C@H](C=O)C[C@@H]1CCCNC1=O)C2(C)C [Compound 46, (1R,2S,5S)-3-(2-(tert-butylamino)-2-oxoacetyl)-6,6-dimethyl-N-((S)-1-oxo-3-((S)-2-oxopiperidin-3-yl)propan-2-yl)-3-azabicyclo[3.1.0]hexane-2-carboxamide]
Second: CC(C)(NC(=O)C(=O)N1C[C@@H]2CCC[C@@H]2[C@H]1C(=O)N[C@H](C=O)C[C@@H]1CCCNC1=O)C(F)(F)F [Compound 47, (1S,3aR,6aS)-2-(2-oxo-2-((1,1,1-trifluoro-2-methylpropan-2-yl)amino)acetyl)-N-((S)-1-oxo-3-((S)-2-oxopiperidin-3-yl)propan-2-yl)octahydrocyclopenta[c]pyrrole-1-carboxamide]
The EC50 of the first is higher: > 1 µM for the first, 0.5 to 1 µM for the second.

`CC(C)C[C@H](NC(=O)C(=O)Nc1ccccc1F)C(=O)N[C@@H](C[C@@H]1CCNC1=O)C(=O)COC(=O)OC(C)C` [Compound 108, (S)-3-((S)-2-(2-((2-fluorophenyl)amino)-2-oxoacetamido)-4-methylpentanamido)-2-oxo-4-((S)-2-oxopyrrolidin-3-yl)butyl isopropyl carbonate] and `CC(C)CC(=O)OCC(=O)[C@H](C[C@@H]1CCCNC1=O)NC(=O)[C@H](CC(C)C)NC(=O)C(=O)Nc1ccccc1F` [Compound 104, (S)-3-((S)-2-(2-((2-fluorophenyl)amino)-2-oxoacetamido)-4-methylpentanamido)-2-oxo-4-((S)-2-oxopiperidin-3-yl)butyl 3-methylbutanoate] fall in the same range of EC50: 0.05 to 0.2 µM for the first, 0.05 to 0.2 µM for the second.

Compared with `N#C[C@H](C[C@@H]1CCCNC1=O)NC(=O)[C@@H]1[C@H]2CCC[C@H]2CN1C(=O)COc1ccc(Cl)cc1Cl` [Compound 61, (1S,3aR,6aS)-N-((S)-1-cyano-2-((S)-2-oxopiperidin-3-yl)ethyl)-2-(2-(2,4-dichlorophenoxy)acetyl)octahydrocyclo-penta[c]pyrrole-1-carboxamide], `O=C[C@H](C[C@@H]1CCCNC1=O)NC(=O)[C@@H]1[C@H]2CCC[C@H]2CN1C(=O)COc1ccc(Cl)cc1Cl` [Compound 45, (1S,3aR,6aS)-2-(2-(2,4-dichlorophenoxy)acetyl)-N-((S)-1-oxo-3-((S)-2-oxopiperidin-3-yl)propan-2-yl)octahydrocyclopenta[c]pyrrole-1-carboxamide] is lower in EC50: 0.5 to 1 µM for the first, 0.05 to 0.2 µM for the second.

First: CC(C)C[C@H](NC(=O)C(=O)Nc1ccccc1F)C(=O)N[C@@H](C[C@@H]1CCNC1=O)C(=O)COC(=O)C1CCC(N2CCCCC2)CC1 (stereo partly drawn) [Compound 5, (S)-3-((S)-2-(2-((2-fluorophenyl)amino)-2-oxoacetamido)-4-methylpentanamido)-2-oxo-4-((S)-2-oxopyrrolidin-3-yl)butyl 4-(piperidin-1-yl)cyclohexane-1-carboxylate]
Second: O=C(Nc1ccccc1F)C(=O)N[C@@H](CC1CC1)C(=O)N[C@@H](C[C@@H]1CCCNC1=O)C(=O)CO [Compound 90, N^1-((S)-3-cyclopropyl-1-(((S)-4-hydroxy-3-oxo-1-((S)-2-oxopiperidin-3-yl)butan-2-yl)amino)-1-oxopropan-2-yl)-N^2-(2-fluorophenyl)oxalamide]
The EC50 of the first is higher: 0.2 to 0.5 µM for the first, < 0.05 µM for the second.

First: CC1(C[C@H](NC(=O)C(=O)NC23CC(F)(C2)C3)C(=O)N[C@@H](C[C@@H]2CCCNC2=O)C(=O)CO)CCC1 [Compound 111, N^1-(3-fluorobicyclo[1.1.1]pentan-1-yl)-N^2-((S)-1-(((S)-4-hydroxy-3-oxo-1-((S)-2-oxopiperidin-3-yl)butan-2-yl)amino)-3-(1-methylcyclobutyl)-1-oxopropan-2-yl)oxalamide]
Second: CC(C)(C)C[C@H](NC(=O)C(=O)Nc1ccccc1F)C(=O)N[C@@H](C[C@@H]1CCCNC1=O)C(=O)CO [Compound 87, N^1-(2-fluorophenyl)-N^2-((S)-1-(((S)-4-hydroxy-3-oxo-1-((S)-2-oxopiperidin-3-yl)butan-2-yl)amino)-4,4-dimethyl-1-oxopentan-2-yl)oxalamide]
The EC50 of the first is higher: 0.2 to 0.5 µM for the first, < 0.05 µM for the second.

First: CC(=O)NC(CC(C)C(F)(F)F)C(=O)N1C[C@H]2[C@@H]([C@H]1C(=O)N[C@H](C#N)C[C@@H]1CCCNC1=O)C2(C)C (stereo partly drawn) [Compound 131, (1R,2S,5S)-3-(2-acetamido-5,5,5-trifluoro-4-methylpentanoyl)-N-((S)-1-cyano-2-((S)-2-oxopiperidin-3-yl)ethyl)-6,6-dimethyl-3-azabicyclo[3.1.0]hexane-2-carboxamide]
Second: CC1(C)[C@@H]2[C@@H](C(=O)N[C@H](C#N)C[C@@H]3CCNC3=O)N(C(=O)C(=O)NC3(C(F)(F)F)CC3)C[C@@H]21 [Compound 65, (1R,2S,5S)-N-((S)-1-cyano-2-((S)-2-oxopyrrolidin-3-yl)ethyl)-6,6-dimethyl-3-(2-oxo-2-((1-(trifluoromethyl)cyclopropyl)amino)acetyl)-3-azabicyclo[3.1.0]hexane-2-carboxamide]
The EC50 of the first is lower: 0.5 to 1 µM for the first, > 1 µM for the second.

`CC(C)C[C@H](NC(=O)OCc1cccc(Cl)c1)C(=O)N[C@@H](C[C@@H]1CCNC1=O)C(=O)CO` [Compound 122, 3-chlorobenzyl ((S)-1-(((S)-4-hydroxy-3-oxo-1-((S)-2-oxopyrrolidin-3-yl)butan-2-yl)amino)-4-methyl-1-oxopentan-2-yl)carbamate] and `COc1cccc(OC)c1NC(=O)C(=O)N[C@@H](CC(C)C)C(=O)N[C@@H](C[C@@H]1CCNC1=O)C(=O)CO` [Compound 15, N^1-(2,6-dimethoxyphenyl)-N^2-((S)-1-(((S)-4-hydroxy-3-oxo-1-((S)-2-oxopyrrolidin-3-yl)butan-2-yl)amino)-4-methyl-1-oxopentan-2-yl)oxalamide] cannot be ordered by EC50: > 1 µM for the first, > 1 µM for the second.

`O=C[C@H](C[C@@H]1CCNC1=O)NC(=O)[C@H](CC1CC1)NC(=O)c1cc(-c2ccccc2F)on1` [Compound 125, N-((S)-3-cyclopropyl-1-oxo-1-(((S)-1-oxo-3-((S)-2-oxopyrrolidin-3-yl)propan-2-yl)amino)propan-2-yl)-5-(2-fluorophenyl)isoxazole-3-carboxamide] and `O=C[C@H](C[C@@H]1CCNC1=O)NC(=O)[C@H](CC1CCCCC1)NC(=O)C(=O)Nc1ccccc1F` [Compound 40, N^1-((S)-3-cyclohexyl-1-oxo-1-(((S)-1-oxo-3-((S)-2-oxopyrrolidin-3-yl)propan-2-yl)amino)propan-2-yl)-N^2-(2-fluorophenyl)oxalamide] fall in the same range of EC50: 0.05 to 0.2 µM for the first, 0.05 to 0.2 µM for the second.

Compared with `CC1(C)[C@@H]2[C@@H](C(=O)N[C@H](C#N)C[C@@H]3CCNC3=O)N(C(=O)C(=O)Nc3ccccc3F)C[C@@H]21` [Compound 59, (1R,2S,5S)-N-((S)-1-cyano-2-((S)-2-oxopyrrolidin-3-yl)ethyl)-3-(2-((2-fluorophenyl)amino)-2-oxoacetyl)-6,6-dimethyl-3-azabicyclo[3.1.0]hexane-2-carboxamide], `CC(C)(C)C[C@H](NC(=O)C(=O)Nc1ccc(OC(F)(F)F)cc1)C(=O)N[C@@H](C[C@@H]1CCCNC1=O)C(=O)CO` [Compound 101, N^1-((S)-1-(((S)-4-hydroxy-3-oxo-1-((S)-2-oxopiperidin-3-yl)butan-2-yl)amino)-4,4-dimethyl-1-oxopentan-2-yl)-N^2-(4-(trifluoromethoxy)phenyl)oxalamide] is lower in EC50: > 1 µM for the first, 0.05 to 0.2 µM for the second. The second is the more potent here.

For `CCc1cccc(CC)c1NC(=O)C(=O)N[C@@H](CC(C)C)C(=O)N[C@@H](C[C@@H]1CCCNC1=O)C(=O)CO` [Compound 28, N^1-(2,6-diethylphenyl)-N^2-((S)-1-(((S)-4-hydroxy-3-oxo-1-((S)-2-oxopiperidin-3-yl)butan-2-yl)amino)-4-methyl-1-oxopentan-2-yl)oxalamide], the EC50 was < 0.05 µM.
